According to BindingDB's records for doi:10.1016/0960-894X(95)00483-A (1995):

Target: Beta-2 adrenergic receptor (Rattus norvegicus) (UniProt P10608)
Experiment: Agonistic activity against Beta-2 adrenergic receptor in rat uterus

Chain of Beta-2 adrenergic receptor (Rattus norvegicus) (P10608 whole entry, looked up): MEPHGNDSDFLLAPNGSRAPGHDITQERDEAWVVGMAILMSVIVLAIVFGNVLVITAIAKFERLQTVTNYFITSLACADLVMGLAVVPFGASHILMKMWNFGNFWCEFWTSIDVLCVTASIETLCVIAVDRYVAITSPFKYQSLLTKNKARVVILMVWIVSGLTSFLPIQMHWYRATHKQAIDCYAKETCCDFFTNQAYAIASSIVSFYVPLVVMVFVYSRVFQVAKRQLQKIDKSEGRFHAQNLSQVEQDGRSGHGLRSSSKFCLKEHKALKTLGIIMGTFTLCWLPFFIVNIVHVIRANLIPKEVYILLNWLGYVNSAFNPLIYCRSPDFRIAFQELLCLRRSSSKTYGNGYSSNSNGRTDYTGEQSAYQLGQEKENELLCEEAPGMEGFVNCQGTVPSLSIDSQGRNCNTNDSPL

IC50: > 10 µM
SMILES: O=C(O)C1(C(=O)O)Oc2cc3c(cc2O1)C[C@@H](NC[C@H](O)c1cccc(Cl)c1)CCC3 [FR-165914]
